The values below come from ChEMBL document CHEMBL3217734, “Sulfonyl-hydrazones of cyclic imides derivatives as potent inhibitors of the Mycobacterium tuberculosis protein tyrosine phosphatase B (PtpB)” (Medchemcomm, 2011).

Calls of active or inactive are those of the source. The rule behind the calls is not given here.

The subject of assay [1] is Mycobacterium tuberculosis. In words: Inhibition of N-terminal hexahistidine-tagged recombinant Mycobacterium tuberculosis PtpB expressed in Escherichia coli BL21(DE3) using p-nitrophenylphosphate as substrate at 25 uM measured for 10 mins by ELISA plate spectrophotometric analysis relative to control.
Assay [2] has as its target T1, Tyrosine-protein phosphatase non-receptor type 1 (Homo sapiens, UniProt P18031).
T1 sequence (P18031 whole entry): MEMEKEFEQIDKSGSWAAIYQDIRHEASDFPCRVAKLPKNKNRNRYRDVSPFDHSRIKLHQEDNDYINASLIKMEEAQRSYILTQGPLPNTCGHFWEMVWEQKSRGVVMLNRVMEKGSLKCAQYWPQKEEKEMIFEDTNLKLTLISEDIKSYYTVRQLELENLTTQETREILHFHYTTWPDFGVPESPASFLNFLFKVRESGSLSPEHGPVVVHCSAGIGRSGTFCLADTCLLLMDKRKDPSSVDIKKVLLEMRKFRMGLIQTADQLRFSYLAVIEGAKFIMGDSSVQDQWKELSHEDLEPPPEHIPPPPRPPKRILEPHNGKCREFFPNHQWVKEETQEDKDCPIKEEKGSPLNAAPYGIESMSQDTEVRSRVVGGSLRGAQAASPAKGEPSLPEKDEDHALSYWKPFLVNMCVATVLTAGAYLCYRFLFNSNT
In words: Inhibition of PTP1B (unknown origin) using p-nitrophenylphosphate as substrate measured for 10 mins by ELISA plate spectrophotometric analysis.

Assay [3] can be described thus: Competitive inhibition of N-terminal hexahistidine-tagged recombinant Mycobacterium tuberculosis PtpB expressed in Escherichia coli BL21(DE3) using p-nitrophenylphosphate as substrate measured for 10 mins by Lineweaver-Burk plot analysis.
Assay [4] is described as follows: Inhibition of N-terminal hexahistidine-tagged recombinant Mycobacterium tuberculosis PtpB expressed in Escherichia coli BL21(DE3) using p-nitrophenylphosphate as substrate measured for 10 mins by ELISA plate spectrophotometric analysis.

For `O=C1C=CC(=O)N1c1ccc(S(=O)(=O)Cl)cc1`, the inhibition in assay [1] came out at 14%.
For the compound `CC12C=CC(O1)C1C(=O)N(c3ccc(S(=O)(=O)N/N=C/c4ccccc4)cc3)C(=O)C12` (stereo not drawn), the IC50 in assay [2] turned out to be 7 µM; in assay [4] it was 18 µM. For the same compound, the inhibition in assay [1] is 59%. In addition, the inhibitory constant (Ki) in assay [3] was found to be 7 µM.
`CC12C=CC(O1)[C@@H]1C(=O)N(c3ccc(S(=O)(=O)N/N=C/c4ccc(Br)cc4)cc3)C(=O)[C@@H]12` (stereo partly drawn): the 50% inhibitory concentration (IC50) stood at 88 µM in assay [2] and 39 µM in assay [4]. Besides, the inhibition in assay [1] came out at 59%. In assay [3], the inhibitory constant (Ki) stood at 9 µM.
In the case of `CC12C=CC(O1)C1C(=O)N(c3ccc(S(=O)(=O)N/N=C/c4ccc(Cl)c(Cl)c4)cc3)C(=O)C12` (stereo not drawn), the inhibition in assay [1] was found to be 34%.
On the same count and under the same terms, the entry for `O=C1c2cccc3cccc(c23)C(=O)N1Cc1ccc(S(=O)(=O)N2CCCC2)cc1` is “inactive”; for `Cc1ccc(/C=N/NS(=O)(=O)c2ccc(N3C(=O)C4C5C=CC(C)(O5)C4C3=O)cc2)cc1` (stereo not drawn) it is 26%; for `O=C1c2cccc3c(Cl)ccc(c23)C(=O)N1Cc1ccc(S(=O)(=O)N2CCOCC2)cc1` it is “inactive”.
Turning to `O=C1c2cccc3cccc(c23)C(=O)N1Cc1ccc(S(=O)(=O)N2CCOCC2)cc1`, the inhibition result in assay [1] is “inactive”.
Same read-out and setting: the figure for `CC12C=CC(O1)C1C(=O)N(c3ccc(S(=O)(=O)N/N=C/c4ccc([N+](=O)[O-])cc4)cc3)C(=O)C12` (stereo not drawn) is 32%; for `CC12C=CC(O1)C1C(=O)N(c3ccc(S(=O)(=O)N4CCCC4)cc3)C(=O)C12` (stereo not drawn) it is “inactive”.
With `O=C1C2C3C=CC(O3)C2C(=O)N1c1ccc(S(=O)(=O)N/N=C/c2ccc([N+](=O)[O-])cc2)cc1` (stereo not drawn), the half-maximal inhibitory concentration (IC50) worked out at 245 µM in assay [2] and 41 µM in assay [4]. The inhibition in assay [1] turned out to be 57%. Besides, in assay [3], the Ki stood at 15 µM.
As to `CC12C=CC(O1)C1C(=O)N(c3ccc(S(=O)(=O)N4CCOCC4)cc3)C(=O)C12` (stereo not drawn), the inhibition entry in assay [1] is “inactive”.
As for `COc1ccc(/C=N/NS(=O)(=O)c2ccc(N3C(=O)C4C5C=CC(C)(O5)C4C3=O)cc2)cc1` (stereo not drawn), the inhibition result in assay [1] was “inactive”.
Still for that read-out and setting: in the case of `O=C1C=CC(=O)N1c1ccccc1` it was 27%; in that of `O=C1C2C3C=CC(O3)C2C(=O)N1c1ccc(S(=O)(=O)N2CCCC2)cc1` (stereo not drawn), “inactive”.
On to `CC12C=CC(O1)C1C(=O)N(c3ccc(S(=O)(=O)N/N=C/c4ccc(Cl)cc4)cc3)C(=O)C12` (stereo not drawn), for which the 50% inhibitory concentration (IC50) in assay [2] came out at 41 µM; in assay [4], 21 µM. Moreover, the inhibition in assay [1] is 59%. The Ki in assay [3] is 2.5 µM.
